Laboratory results taken from the NIST ThermoML archive (doi:10.1016/j.fluid.2006.03.014).

Conditions: Liquid

CC(C)(N)CO [2-amino-2-methylpropan-1-ol]
Conditions | vapor or sublimation pressure [kPa]
373.25 K | 8
381.35 K | 12
388.05 K | 16
393.05 K | 20
397.25 K | 24
401.05 K | 28
404.45 K | 32
407.75 K | 36
410.35 K | 40
412.95 K | 44
415.15 K | 48
416.65 K | 50.7
418.15 K | 53.3
419.95 K | 57.3
421.85 K | 61.3
423.65 K | 65.3
424.45 K | 66.7
425.55 K | 69.3
427.15 K | 73.3
429.65 K | 80
429.75 K | 80
431.85 K | 85.3
433.65 K | 90.7
435.35 K | 96
436.85 K | 101.3
